Here are results for one molecule from patent US20220305031A1, “METHODS FOR REDUCING TUMOR PROGRESSION AND FIBROSIS AND INCREASING ADAPTIVE IMMUNITY IN MALIGNANCIES” (GEORGETOWN UNIVERSITY, priority 2019, published 2022).

Holding throughout (format): in vivo
The test system of data set [1] is tumors from NeuT/ATTAC mice. Kind of data set: FLIM and SHG microscopy of tumor sections. The following applies: DMHCA-treated tumor vs control tumor. The source says: SHG imaging using a multiphoton microscope equipped with a Deep Imaging Via Emission Recovery (DIVER) detector (Crosignani et al., “Deep Tissue Fluorescence Imaging and in Vivo Biological Applications,” J. Biomed. Opt. 17(11):116023 (2012), which is hereby incorporated by reference in its entirety) can distinguish collagen accumulation in the early stages of fibrosis unlike standard histological analysis (Dvornikov & Gratton, “Imaging in Turbid Media: A Transmission Detector Gives 2-3 Order of Magnitude Enhanced Sensitivity Compared to Epi-Detection Schemes,” Biomed. Opt. Express 7:3747-755 (2016); Ranjit et al., “Label-Free Fluorescence Lifetime and Second Harmonic Generation Imaging Microscopy Improves Quantification of Experimental Renal Fibrosis,” Kidney Int. 90:1123-1128 (2016), each of which is hereby incorporated by reference in its entirety). DIVER, by virtue of detection in the direction of light propagation is especially suitable for SHG detection and a combination of SHG and FLIM enables spatial mapping of collagen I and III, which is important for fibrosis. Additionally, this type of imaging is applicable to unstained tissues, which eliminates the uncertainty from issues associated with labeling efficiency. Moreover, the same tissue can be used for other purposes after imaging is complete. […]

Data set [2] concerns NeuT/ATTAC mice. Description: Tumor development and multiplicity in AP-treated NeuT/ATTAC mice on DMHCA diet. The following applies: diet with 0.05% DMHCA (~100 mg/kg/day). An excerpt: The derivation and characteristics of MMTV-PPARd mice was reported in Yuan et al., “PPARdelta Induces Estrogen Receptor-Positive Mammary Neoplasia Through an Inflammatory and Metabolic Phenotype Linked to mTOR Activation,” Cancer Res. 73(14):4349-4361 (2013), which is hereby incorporated by reference in its entirety. […] FAT-ATTAC mice on a C57BL/6 background (Pajvani et al., “Fat Apoptosis Through Targeted Activation of Caspase 8: A New Mouse Model of Inducible and Reversible Lipoatrophy,” Nat. Med. 11(7):797-803 (2005); Landskroner-Eiger et al., “Morphogenesis of the Developing Mammary Gland. Stage-Dependent Impact of Adipocytes,” Dev. Biol. 344(2):968-978 (2010), each of which is hereby incorporated by reference in its entirety) were crossed into the FVB strain for several generations. Derivation of NeuT/ATTAC mice was reported in Yuan et al., “MMTV-NeuT/ATTAC Mice: A New Model for Studying the Stromal Tumor Microenvironment,” Oncotarget. 9(8):8042-8053 (2018), which is hereby incorporated by reference in its entirety. All animals were fed LabDiet 5303 and monitored for the NeuT, PPARd, and/or FKBPv-caspase 8 transgenes by genotyping.
(§1) Fibrosis was induced in mice at 6 w.o.a. by weekly i.p. injections of 0.4 mg/kg AP dissolved in vehicle (4% ethanol, 10% PEG-400, and 1.75% Tween-20 in water). Mice were maintained on LabDiet 5053 chow supplemented with 0.05% DMHCA (100 mg/kg) beginning at 8 w.o.a. Control mice received the standard diet.
Statistical significance was evaluated using the Mantel-Cox log-rank test for survival analysis and Prism GraphPad software or the two-tailed Student's t test to evaluate differences between means at a significance of P<0.05.
A study was designed to evaluate whether DMHCA treatment could abrogate tumor development in NeuT/ATTAC mice treated with AP.

The subject of data set [3] is NeuT/ATTAC mice. Kind of data set: FACS analysis of immune cell subsets in tumor infiltrates and spleen. Here is the method:
as §1
To assess whether DMHCA treatment could reduce immune tolerance in NeuT/ATTAC mice, a model that is highly resistant to PD-1 immunotherapy, spleen and tumor immune infiltrates were analyzed by FACS (FIGS. 6A-6C).
In general terms: A flow cytometer gives signals particle by particle.

The subject of data set [4] is tumors from NeuT/ATTAC mice. Description: Immunohistochemistry of FFPE tumor sections. Here is the method:
as §1
Mammary tissue was excised and FFPE sections were prepared (Yuan et al., “MMTV-NeuT/ATTAC Mice: A New Model for Studying the Stromal Tumor Microenvironment,” Oncotarget. 9(8):8042-53 (2018); Yuan et al., “PPARdelta Induces Estrogen Receptor-Positive Mammary Neoplasia Through an Inflammatory and Metabolic Phenotype linked to mTOR Activation,” Cancer Res. 73(14):4349-4361 (2013); Yin et al., “Peroxisome Proliferator-Activated Receptor Delta and Gamma Agonists Differentially Alter Tumor Differentiation and Progression During Mammary Carcinogenesis,” Cancer Res. 65:3950-3957 (2005); Yin et al., “Inhibition of Peroxisome Proliferator-Activated Receptor Gamma Increases Estrogen Receptor-Dependent Tumor Specification,” Cancer Res. 69(2):687-694 (2009), each of which is hereby incorporated by reference in its entirety). Primary antibodies: PD-L1 (1:200, 17952-1-AP, Proteintech), SMA (1:100, sc130617, Santa Cruz), Ki67 (1:50, CRM325, Biocare), CD31 (1:100, ab56299, Abcam), CXCL1 (1:120, sc-1374, Santa Cruz), F4/80 (1:30, 14-4801-85, eBioscience), Foxp3 (1:50, 14-5773-82, e Bioscience), CD8a (1:40, 14-0808-82, eBioscience). Collagen was stained with Picrosirius Red stain (Yuan et al., “MMTV-NeuT/ATTAC Mice: A New Model for Studying the Stromal Tumor Microenvironment,” Oncotarget. 9(8):8042-53 (2018), which is hereby incorporated by reference in its entirety).

The mark [5] stands for this setting: NeuT/ATTAC mice, DMHCA from two months of age.

As to `C[C@H](CCC(=O)N(C)C)[C@H]1CC[C@H]2[C@@H]3CC=C4C[C@@H](O)CC[C@]4(C)[C@H]3CC[C@]12C` [DMHCA, dimethyl-3-beta-hydroxy-cholenamide], the “collagen I & collagen III detected by FLIM” value in data set [1] (FIG. 8C-8D) is on record as “little collagen”. Further, the “collagen I by SHG microscopy” value in data set [1] (FIG. 8E-8G) is listed as “markedly reduced”. In addition, the tumor development entry in the data set on NeuT/ATTAC mice [2] (NeuT/ATTAC mice treated with AP, FIG. 5A) was “reduction in tumor development”. For the same molecule, in the data set with NeuT/ATTAC mice [2] (NeuT/ATTAC mice treated with AP, FIG. 5B), the “decrease in tumor multiplicity” value worked out at 10 fold. The “toxicity of dietary dose” value in the data set on NeuT/ATTAC mice [2] was “nontoxic”. Also, the “PD1+/Foxp3+ CD4+ T cells” value in the data set with NeuT/ATTAC mice [3] (setting [5]) is on record as “increase”. Besides, in the data set with NeuT/ATTAC mice [3] (spleen, vs control), the “CD4+ effector T cells” value is recorded as “enhanced”, the “CD8+ effector T cells” value is recorded as “enhanced”, the G-MDSC result is “reduced” and the Treg cells entry was “markedly reduced”. Further, in the data set with NeuT/ATTAC mice [3] (tumor infiltrates, vs control), the “CD4+ effector T cells” value was “increased”, the “CD8+ effector T cells” value is recorded as “increased”, the G-MDSC entry was “reduced” and the M-MDSC entry is given as “reduced”. Also, the Treg entry in the data set on NeuT/ATTAC mice [3] (tumor infiltrates, vs control) is “reduced”. Besides, in data set [4] (IHC of tumors, FIG. 7), the CXCL1 expression entry was “reduced CXCL1 expression”. Further, in data set [4] (setting [5]), the “fibroblast activation protein expression” value is listed as “reduced” and the “smooth muscle actin expression” value is reported as “reduced”.
